Molecular target: ClbQ (Escherichia coli, UniProt Q0P7K7)
Experiment: DTNB-based continuous spectrophotometric thioesterase assay
Assay type: biochemical
Settings: 100 mM Tris HCl, pH 7.4, 20 mM NaCl, 100 uM DTNB, 100 nM ClbQ, 37 °C

| SMILES | DTNB-based continuous spectrophotometric thioesterase assay (412 nm) |
| --- | --- |
| CC(=O)NCCSC(C)=O [acetyl-SNAC] | ClbQ has thioesterase activity with model straight-chain acyl-SNACs |
| CCCCCCCCCCCCCC(=O)SCCNC(C)=O [myristoyl-SNAC] | ClbQ has thioesterase activity with model straight-chain acyl-SNACs |
